Reference: patent US20220409620A1, “REDUCING IMMUNOGENICITY TO PEGLOTICASE” (Horizon Pharma Rheumatology LLC, priority 2016, published 2022)

System: adult patients with uncontrolled gout
Experiment: Tender and swollen joint counts, open-label study
Assay type: in vivo, human
Protocol: Tender and Swollen Joint Counts: Tender and swollen (excludes hip) joint counts were recorded at the Week −4 or week −6 (prior to the first dose of MTX) Visit during the MTX Run-in Period for the open-label and randomized studies, respectively; prior to pegloticase infusion at the Day 1 and Weeks 14, 24 and 36 Visits, or at the Day 1 and weeks 6, 14, 20, 24, 30, 36, and 44 visits during the Pegloticase+IMM Period for the open-label and randomized studies, respectively; and at the End of Pegloticase Infusions Visit (if applicable) and the Week 52/End of Study/Early Termination Visit and the Post Treatment 3 and 6 month Follow-up visits. Tender and swollen joint counts were assessed by physical examination.

[1] = Early Termination Visit, Pegloticase Baseline, mITT Population
[2] = End of Pegloticase Infusions Visit, Pegloticase Baseline, mITT Population
[3] = Week 14, Pegloticase Baseline, mITT Population
[4] = Week 24, Pegloticase Baseline, mITT Population
[5] = Week 36, Pegloticase Baseline, mITT Population
[6] = Week 52/ET, Pegloticase Baseline, mITT Population
[7] = mITT, Early Termination Visit, n=3
[8] = mITT, End of Pegloticase Infusions Visit, n=2

pegloticase
Swollen Joint Count, Change from Baseline, Mean (SD) [1]: −3.3 (3.06)
Swollen Joint Count, Change from Baseline, Median [1]: −4.0
Swollen Joint Count, Observed, Mean (SD) [1]: 0.7 (0.58)
Swollen Joint Count, Observed, Median [1]: 1.0
Tender Joint Count, Change from Baseline, Mean (SD) [1]: −2.7 (4.16)
Tender Joint Count, Change from Baseline, Median [1]: −4.0
Tender Joint Count, Observed, Mean (SD) [1]: 7.7 (8.96)
Tender Joint Count, Observed, Median [1]: 3.0
Swollen Joint Count, Change from Baseline, Mean (SD) [2]: −2.0 (2.83)
Swollen Joint Count, Change from Baseline, Median [2]: −2.0
Swollen Joint Count, Observed, Mean (SD) [2]: 0.0 (0.00)
Swollen Joint Count, Observed, Median [2]: 0.0
Tender Joint Count, Change from Baseline, Mean (SD) [2]: −3.0 (5.66)
Tender Joint Count, Change from Baseline, Median [2]: −3.0
Tender Joint Count, Observed, Mean (SD) [2]: 2.0 (2.83)
Tender Joint Count, Observed, Median [2]: 2.0
Swollen Joint Count, Change from Baseline, Mean (SD) [3]: −3.6 (7.04)
Swollen Joint Count, Change from Baseline, Median [3]: −2.5
Swollen Joint Count, Observed, Mean (SD) [3]: 1.7 (3.73)
Swollen Joint Count, Observed, Median [3]: 0.0
Tender Joint Count, Change from Baseline, Mean (SD) [3]: −5.1 (8.12)
Tender Joint Count, Change from Baseline, Median [3]: −5.0
Tender Joint Count, Observed, Mean (SD) [3]: 4.6 (6.16)
Tender Joint Count, Observed, Median [3]: 2.0
Swollen Joint Count, Change from Baseline, Mean (SD) [4]: −5.1 (6.66)
Swollen Joint Count, Change from Baseline, Median [4]: −3.0
Swollen Joint Count, Observed, Mean (SD) [4]: 0.5 (1.21)
Swollen Joint Count, Observed, Median [4]: 0.0
Tender Joint Count, Change from Baseline, Mean (SD) [4]: −6.8 (8.16)
Tender Joint Count, Change from Baseline, Median [4]: −4.0
Tender Joint Count, Observed, Mean (SD) [4]: 2.6 (3.88)
Tender Joint Count, Observed, Median [4]: 0.0
Swollen Joint Count, Change from Baseline, Mean (SD) [5]: −6.2 (8.15)
Swollen Joint Count, Change from Baseline, Median [5]: −4.0
Swollen Joint Count, Observed, Mean (SD) [5]: 0.1 (0.33)
Swollen Joint Count, Observed, Median [5]: 0.0
Tender Joint Count, Change from Baseline, Mean (SD) [5]: −7.8 (8.94)
Tender Joint Count, Change from Baseline, Median [5]: −4.0
Tender Joint Count, Observed, Mean (SD) [5]: 2.1 (4.54)
Tender Joint Count, Observed, Median [5]: 0.0
Swollen Joint Count, Change from Baseline, Mean (SD) [6]: −13.0 (13.00)
Swollen Joint Count, Change from Baseline, Median [6]: −13.0
Swollen Joint Count, Observed, Mean (SD) [6]: 0.0 (0.00)
Swollen Joint Count, Observed, Median [6]: 0.0
Tender Joint Count, Change from Baseline, Mean (SD) [6]: −16.0 (17.52)
Tender Joint Count, Change from Baseline, Median [6]: −15.0
Tender Joint Count, Observed, Mean (SD) [6]: 5.3 (3.21)
Tender Joint Count, Observed, Median [6]: 4.0
Swollen Joint Count, Change from Methotrexate Baseline, Mean (SD) (mITT, Day 1, n=14): −0.7 (5.21)
Swollen Joint Count, Change from Methotrexate Baseline, Median (mITT, Day 1, n=14): 0.5
Swollen Joint Count, Observed, Mean (SD) (mITT, Day 1, n=14): 5.3 (6.94)
Swollen Joint Count, Observed, Median (mITT, Day 1, n=14): 3.5
Tender Joint Count, Change from Methotrexate Baseline, Mean (SD) (mITT, Day 1, n=14): −1.9 (9.75)
Tender Joint Count, Change from Methotrexate Baseline, Median (mITT, Day 1, n=14): 0.0
Tender Joint Count, Observed, Mean (SD) (mITT, Day 1, n=14): 9.6 (11.03)
Tender Joint Count, Observed, Median (mITT, Day 1, n=14): 7.0
Swollen Joint Count, Change from Methotrexate Baseline, Mean (SD) [7]: −1.0 (1.73)
Swollen Joint Count, Change from Methotrexate Baseline, Median [7]: 0.0
Swollen Joint Count, Observed, Mean (SD) [7]: 0.7 (0.58)
Swollen Joint Count, Observed, Median [7]: 1.0
Tender Joint Count, Change from Methotrexate Baseline, Mean (SD) [7]: 0.7 (5.13)
Tender Joint Count, Change from Methotrexate Baseline, Median [7]: 2.0
Tender Joint Count, Observed, Mean (SD) [7]: 7.7 (8.96)
Tender Joint Count, Observed, Median [7]: 3.0
Swollen Joint Count, Change from Methotrexate Baseline, Mean (SD) [8]: −7.0 (4.24)
Swollen Joint Count, Change from Methotrexate Baseline, Median [8]: −7.0
Swollen Joint Count, Observed, Mean (SD) [8]: 0.0 (0.00)
Swollen Joint Count, Observed, Median [8]: 0.0
Tender Joint Count, Change from Methotrexate Baseline, Mean (SD) [8]: −12.0 (7.07)
Tender Joint Count, Change from Methotrexate Baseline, Median [8]: −12.0
Tender Joint Count, Observed, Mean (SD) [8]: 2.0 (2.83)
Tender Joint Count, Observed, Median [8]: 2.0
Swollen Joint Count, Change from Methotrexate Baseline, Mean (SD) (mITT, Week 14, n=14): −4.3 (7.38)
Swollen Joint Count, Change from Methotrexate Baseline, Median (mITT, Week 14, n=14): −2.0
Swollen Joint Count, Observed, Mean (SD) (mITT, Week 14, n=14): 1.7 (3.73)
Swollen Joint Count, Observed, Median (mITT, Week 14, n=14): 0.0
Tender Joint Count, Change from Methotrexate Baseline, Mean (SD) (mITT, Week 14, n=14): −7.0 (14.20)
Tender Joint Count, Change from Methotrexate Baseline, Median (mITT, Week 14, n=14): 0.0
Tender Joint Count, Observed, Mean (SD) (mITT, Week 14, n=14): 4.6 (6.16)
Tender Joint Count, Observed, Median (mITT, Week 14, n=14): 2.0
Swollen Joint Count, Change from Methotrexate Baseline, Mean (SD) (mITT, Week 24, n=11): −6.6 (9.03)
Swollen Joint Count, Change from Methotrexate Baseline, Median (mITT, Week 24, n=11): −3.0
Swollen Joint Count, Observed, Mean (SD) (mITT, Week 24, n=11): 0.5 (1.21)
Swollen Joint Count, Observed, Median (mITT, Week 24, n=11): 0.0
Tender Joint Count, Change from Methotrexate Baseline, Mean (SD) (mITT, Week 24, n=11): −10.2 (14.27)
Tender Joint Count, Change from Methotrexate Baseline, Median (mITT, Week 24, n=11): −4.0
Tender Joint Count, Observed, Mean (SD) (mITT, Week 24, n=11): 2.6 (3.88)
Tender Joint Count, Observed, Median (mITT, Week 24, n=11): 0.0
Swollen Joint Count, Change from Methotrexate Baseline, Mean (SD) (mITT, Week 36, n=9): −7.8 (10.81)
Swollen Joint Count, Change from Methotrexate Baseline, Median (mITT, Week 36, n=9): −3.0
Swollen Joint Count, Observed, Mean (SD) (mITT, Week 36, n=9): 0.1 (0.33)
Swollen Joint Count, Observed, Median (mITT, Week 36, n=9): 0.0
Tender Joint Count, Change from Methotrexate Baseline, Mean (SD) (mITT, Week 36, n=9): −12.3 (14.56)
Tender Joint Count, Change from Methotrexate Baseline, Median (mITT, Week 36, n=9): −7.0
Tender Joint Count, Observed, Mean (SD) (mITT, Week 36, n=9): 2.1 (4.54)
Tender Joint Count, Observed, Median (mITT, Week 36, n=9): 0.0
Swollen Joint Count, Change from Methotrexate Baseline, Mean (SD) (mITT, Week 52/ET, n=3): −21.0 (9.64)
Swollen Joint Count, Change from Methotrexate Baseline, Median (mITT, Week 52/ET, n=3): −25.0
Swollen Joint Count, Observed, Mean (SD) (mITT, Week 52/ET, n=3): 0.0 (0.00)
Swollen Joint Count, Observed, Median (mITT, Week 52/ET, n=3): 0.0
Tender Joint Count, Change from Methotrexate Baseline, Mean (SD) (mITT, Week 52/ET, n=3): −24.0 (21.38)
Tender Joint Count, Change from Methotrexate Baseline, Median (mITT, Week 52/ET, n=3): −17.0
Tender Joint Count, Observed, Mean (SD) (mITT, Week 52/ET, n=3): 5.3 (3.21)
Tender Joint Count, Observed, Median (mITT, Week 52/ET, n=3): 4.0
